Results published in publication PMC7504258, “New Hybrids of 4-Amino-2,3-polymethylene-quinoline and p-Tolylsulfonamide as Dual Inhibitors of Acetyl- and Butyrylcholinesterase and Potential Multifunctional Agents for Alzheimer’s Disease Treatment” (Molecules, 2020).

Columns and labels:
Equine serum BChE = molecular target: T1, Equine serum BChE (Equus caballus, UniProt P81908); experiment: biochemical; conditions: for IC50: mean ± SEM, n = 3, pH 7.5, 25 °C; for Selectivity, S = IC50 AChE/IC50 BChE: ratio IC50 AChE/IC50 BChE
T1 construct: two enzymes of non-human origin: equine serum BChE and porcine liver CES; purchased Sigma-Aldrich; host or cells: equine serum
T1 sequence (P81908 whole entry): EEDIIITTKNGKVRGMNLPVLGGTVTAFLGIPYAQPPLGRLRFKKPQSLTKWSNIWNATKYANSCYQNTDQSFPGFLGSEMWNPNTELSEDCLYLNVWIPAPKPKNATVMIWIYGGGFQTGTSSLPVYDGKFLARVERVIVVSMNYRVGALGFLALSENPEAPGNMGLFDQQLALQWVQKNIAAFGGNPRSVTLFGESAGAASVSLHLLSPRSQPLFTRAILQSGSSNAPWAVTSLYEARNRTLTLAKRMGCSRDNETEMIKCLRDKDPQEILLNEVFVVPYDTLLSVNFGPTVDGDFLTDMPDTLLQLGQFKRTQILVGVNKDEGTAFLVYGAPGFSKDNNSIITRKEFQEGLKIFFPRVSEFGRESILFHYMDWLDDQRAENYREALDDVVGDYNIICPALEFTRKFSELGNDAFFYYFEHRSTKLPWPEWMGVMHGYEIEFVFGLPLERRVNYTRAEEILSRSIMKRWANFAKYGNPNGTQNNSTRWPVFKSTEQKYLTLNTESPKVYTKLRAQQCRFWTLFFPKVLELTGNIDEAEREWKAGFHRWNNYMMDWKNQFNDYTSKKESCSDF
Procedure: (§1) All experiments were carried out in accordance with the standard protocols approved by IPAC RAS. Human erythrocyte AChE, equine serum BChE, porcine liver CES, acetylthiocholine iodide (ATCh), butyrylthiocholine iodide (BTCh), 5,5′-dithio-bis-(2-nitrobenzoic acid) (DTNB), and 4-nitrophenol acetate (4-NPA) were purchased from Sigma-Aldrich (Saint Louis, MO, USA).
(§2) AChE and BChE activities were measured by the colorimetric method of Ellman et al.. The assay solution consisted of 0.1 M K/Na phosphate buffer pH 7.5, 25 °C, 0.33 mM DTNB, 0.02 unit/mL AChE or BChE, and 1 mM substrate (ATCh or BTCh, respectively). Reagent blanks consisted of reaction mixtures without substrates.
(§3) An initial evaluation of inhibitory activity of compounds was carried out by determination of the AChE, BChE and CES inhibition at a compound concentration of 20 µM. For this, a sample of the corresponding enzyme was incubated with the test compound for 5 min at 25 °C for temperature equilibration; then the enzyme residual activity was determined. Each experiment was performed in triplicate.
(§4) The test compounds were added to the assay solution and incubated with the enzyme at 25 °C for 5 min (for temperature equilibration) followed by the addition of substrate. A parallel control was made for the assay solution with no inhibitor.
(§5) Measurements were performed in the FLUOStar OPTIMA microplate spectrophotometer (BMG Labtech, Ortenberg, Germany). Each experiment for the IC50 assay was performed in triplicate. The results were expressed as the mean ± SEM. The reaction rates in the presence and absence of inhibitor were compared, and the percent residual enzyme activity due to the presence of test compounds was calculated. IC50 values were determined graphically from inhibition curves (log inhibitor concentration vs. percent residual enzyme activity) using Origin 6.1 software (OriginLab, Northampton, MA, USA).

Human erythrocyte AChE = molecular target: T2, Human erythrocyte AChE (Homo sapiens, UniProt P22303); experiment: biochemical; conditions: mean ± SEM, n = 3; pH 7.5, 25 °C
T2 construct: AChE from human erythrocytes was used; purchased Sigma-Aldrich; host or cells: human erythrocytes
T2 sequence (P22303 other isoform, or with tags, fused parts or gaps): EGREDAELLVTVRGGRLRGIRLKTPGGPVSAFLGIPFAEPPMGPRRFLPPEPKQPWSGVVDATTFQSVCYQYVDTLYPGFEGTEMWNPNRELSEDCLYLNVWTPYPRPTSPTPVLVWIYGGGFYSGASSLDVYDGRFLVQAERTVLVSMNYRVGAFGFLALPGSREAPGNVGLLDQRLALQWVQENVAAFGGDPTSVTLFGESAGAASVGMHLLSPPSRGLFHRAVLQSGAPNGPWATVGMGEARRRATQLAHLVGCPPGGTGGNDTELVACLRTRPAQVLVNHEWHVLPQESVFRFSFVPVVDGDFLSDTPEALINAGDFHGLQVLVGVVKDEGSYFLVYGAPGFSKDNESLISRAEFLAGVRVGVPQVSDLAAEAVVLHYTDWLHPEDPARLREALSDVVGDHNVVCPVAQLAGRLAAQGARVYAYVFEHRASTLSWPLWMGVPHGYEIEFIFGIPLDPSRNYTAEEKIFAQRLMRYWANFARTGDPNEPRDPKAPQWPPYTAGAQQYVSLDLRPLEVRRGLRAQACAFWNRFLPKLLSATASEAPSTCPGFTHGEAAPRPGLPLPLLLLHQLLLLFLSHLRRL
Procedure: as §1, §2, §3, §4, §5

Porcine liver CES = experiment: CES inhibition (4-nitrophenyl acetate hydrolysis); type: biochemical; conditions: inhibition at compound concentration 20 µM; mean ± SEM, n = 3
Procedure: as §1
Final enzyme and substrate (4-nitrophenyl acetate) concentrations were 0.02 unit/mL and 1 mM, respectively. Assays were carried out with a blank containing all constituents except porcine CES to assess non-enzymatic hydrolysis.
as §3, §4, §5

EeAChE PAS = EeAChE PAS (Electrophorus electricus, UniProt O42275); experiment: Propidium iodide displacement from the PAS of EeAChE (fluorescence); type: binding; conditions: compound concentration 20 µM; mean ± SEM, n = 3
Sequence of EeAChE PAS (O42275 24-633): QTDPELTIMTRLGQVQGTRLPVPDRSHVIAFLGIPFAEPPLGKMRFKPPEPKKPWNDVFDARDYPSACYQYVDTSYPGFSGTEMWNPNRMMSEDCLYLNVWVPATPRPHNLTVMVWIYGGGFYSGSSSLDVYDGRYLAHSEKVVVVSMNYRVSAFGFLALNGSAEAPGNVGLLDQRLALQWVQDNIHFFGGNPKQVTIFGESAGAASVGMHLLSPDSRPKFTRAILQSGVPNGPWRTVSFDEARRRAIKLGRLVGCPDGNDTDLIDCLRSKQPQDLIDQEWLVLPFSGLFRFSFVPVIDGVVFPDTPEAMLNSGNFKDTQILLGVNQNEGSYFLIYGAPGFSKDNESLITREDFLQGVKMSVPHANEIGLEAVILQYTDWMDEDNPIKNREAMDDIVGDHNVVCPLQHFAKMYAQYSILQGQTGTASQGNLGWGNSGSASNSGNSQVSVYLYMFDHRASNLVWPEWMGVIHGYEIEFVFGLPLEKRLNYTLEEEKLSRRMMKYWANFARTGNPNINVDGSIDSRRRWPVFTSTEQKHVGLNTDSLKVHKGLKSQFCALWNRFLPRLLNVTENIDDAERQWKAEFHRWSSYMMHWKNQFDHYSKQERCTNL
Procedure: EeAChE was used owing to its high degree of purification, high activity, and lower cost than human AChE (hAChE).
To determine the degree of displacement (% displacement) of propidium from the PAS of AChE, EeAChE (final concentration, 7 μM) was incubated with the test compound at a concentration of 20 μM in 1 mM Tris-HCl buffer pH 8.0, 25 °C, for 15 min. Then, propidium iodide solution (final concentration, 8 μM) was added, the samples were incubated for 15 min and the fluorescence spectrum (530 nm (excitation) and 600 nm (emission)) was taken. […] The blank contained propidium iodide of the same concentration in 1 mM Tris-HCl buffer pH 8.0. The measurements were carried out in triplicate on the FLUOStar Optima microplate reader (BMG Labtech), and the results were calculated by the following formula:% Displacement = 100 − (IFAChE+ Propidium + inhibitor/IFAChE + Propidium) × 100(1) where IFAChE + Propidium is the fluorescence intensity of the propidium associated with AChE in the absence of the test compound (taken as 100%), and IFAChE + Propidium + inhibitor is the fluorescence intensity of the propidium associated with AChE in the presence of the test compound.

AChE = molecular target: T3, AChE (Homo sapiens, UniProt P22303); experiment: Kinetic study of AChE inhibition, steady-state inhibition constants; type: biochemical; conditions: for Type of AChE inhibition: changes in both Km and Vmax
T3 construct: AChE from human erythrocytes was used; purchased Sigma-Aldrich; host or cells: human erythrocytes
T3 sequence (P22303 other isoform, or with tags, fused parts or gaps): as the sequence (P22303 other isoform, or with tags, fused parts or gaps) above
Procedure: (§6) • Kinetic Study of AChE and BChE Inhibition. Determination of Steady-State Inhibition Constants
(§7) Mechanisms of AChE and BChE inhibition were assessed via a thorough analysis of enzyme kinetics. Residual activity was measured following 5 min incubation at 25 °C (for temperature equilibration) with three increasing concentrations of inhibitor and six decreasing substrate concentrations. Substrate was added immediately after the 5 min incubation with inhibitor and the rates of absorption were monitored at 412 nm using the FLUOStar OPTIMA (BMG Labtech) microplate spectrophotometer. Inhibition constants Ki (competitive component) and αKi (noncompetitive component) were determined by linear regression of 1/V versus 1/[S] double-reciprocal (Lineweaver-Burk) plots using Origin 6.1 software. Data were expressed as mean ± SEM (n = 3 experiments).

BChE = molecular target: T4, BChE (Equus caballus, UniProt P81908); experiment: Kinetic study of BChE inhibition, steady-state inhibition constants; type: biochemical
T4 construct: two enzymes of non-human origin: equine serum BChE and porcine liver CES; purchased Sigma-Aldrich; host or cells: equine serum
T4 sequence (P81908 whole entry): as the sequence (P81908 whole entry) above
Procedure: as §6, §7

[1] = test system: AChE-induced Aβ aggregation; conditions: at 100 µM; cited from earlier work

Row | SMILES | IC50 (Equine serum BChE) [nM] | Selectivity, S = IC50 AChE/IC50 BChE (Equine serum BChE) | IC50 (Human erythrocyte AChE) [nM] | Porcine Liver CES, (%) (Porcine liver CES) | Displacement of Propidium from the EeAChE PAS (EeAChE PAS) [%] | Type of AChE inhibition (AChE) | αKi (noncompetitive component), AChE (AChE; Lineweaver-Burk analysis) [µM] | Ki (AChE; Lineweaver-Burk analysis, read-out: Ki (competitive component), AChE) [nM] | αKi (noncompetitive component), BChE (BChE; Lineweaver-Burk analysis) [µM] | Ki (BChE; Lineweaver-Burk analysis, read-out: Ki (competitive component), BChE) [nM] | Type of BChE inhibition (BChE; changes in both Km and Vmax) | decrease in AChE-induced Aβ aggregation [1] [%]
1 | Cc1ccc(S(=O)(=O)NCCCCCNc2c3c(nc4ccccc24)CCCC3)cc1 [7h, 4-Methyl-N-(5-(1,2,3,4-tetrahydro-acridin-9-ylamino)-pentyl)-benzenesulfonamide] | 68 ± 1.4 | 1.9 | 131 ± 10 | 6.7 ± 0.8 | 17.5 ± 1.5 | mixed-type AChE inhibitor |  |  |  |  |  | 
2 | Cc1ccc(S(=O)(=O)NCCCCNc2c3c(nc4ccccc24)CCCC3)cc1 [7g, 4-Methyl-N-(4-(1,2,3,4-tetrahydro-acridin-9-ylamino)-butyl)-benzenesulfonamide] | 61.7 ± 0.3 | 10.8 | 668 ± 170 | 17.1 ± 1.4 | 14.8 ± 1.3 | mixed type of inhibition | 1.09 ± 0.02 | 390 ± 8 | 0.117 ± 0.002 | 23.5 ± 0.2 | mixed type of inhibition | 
3 | Cc1ccc(S(=O)(=O)NCCCCCCNc2c3c(nc4ccccc24)CCC3)cc1 [7e, N-(6-(2,3-Dihydro-1H-cyclopenta[b]quinolin-9-ylamino)-hexyl)-4-methyl-benzenesulfonamide] | 209 ± 8 |  | 4000 ± 90 | 18.6 ± 0.2 | 15.9 ± 1.3 |  |  |  |  |  |  | 
4 | Cc1ccc(S(=O)(=O)NCCCNc2c3c(nc4ccccc24)CCCCC3)cc1 [7i, 4-Methyl-N-(3-(7,8,9,10-tetrahydro-6H-cyclohepta[b]quinolin-11-ylamino)-propyl)-benzenesulfonamide] | 43.1 ± 1.1 | 64.0 | 2760 ± 40 | 1.9 ± 0.9 | 13.9 ± 1.3 |  |  |  |  |  |  | 
5 | Cc1ccc(S(=O)(=O)NCCCCNc2c3c(nc4ccccc24)CCC3)cc1 [7c, N-(4-(2,3-Dihydro-1H-cyclopenta[b]quinolin-9-ylamino)-butyl)-4-methyl-benzenesulfonamide] | 578 ± 25 | 3.6 | 2080 ± 80 | 9.0 ± 0.1 | 14.9 ± 1.2 |  |  |  |  |  |  | 
6 | Cc1ccc(S(=O)(=O)NCCCNc2c3c(nc4ccccc24)CCCCCC3)cc1 [7k, N-(3-(6,7,8,9,10,11-Hexahydro-cycloocta[b]quinolin-12-ylamino)-propyl)-4-methyl-benzenesulfonamide] | 461 ± 7 | 24.1 | 11100 ± 200 | 5.2 ± 1.5 | 15.9 ± 1.7 |  |  |  |  |  |  | 
7 | Cc1ccc(S(=O)(=O)NCCCNc2c3c(nc4ccccc24)CCCC3)cc1 [7f, 4-Methyl-N-(3-(1,2,3,4-tetrahydro-acridin-9-ylamino)-propyl)-benzenesulfonamide] | 110 ± 5 | 17.1 | 1880 ± 30 | 2.0 ± 0.8 | 9.8 ± 0.8 |  |  |  |  |  |  | 
8 | Cc1ccc(S(=O)(=O)NCCNc2c3c(nc4ccccc24)CCC3)cc1 [7a, N-(2-(2,3-Dihydro-1H-cyclopenta[b]quinolin-9-ylamino)-ethyl)-4-methyl-benzenesulfonamide] | 924 ± 31 | 9.8 | 9030 ± 640 | 11.9 ± 1.5 | 9.2 ± 1.0 |  |  |  |  |  |  | 
9 | CC[N+](C)(CC)CCC[n+]1c(-c2ccccc2)c2cc(N)ccc2c2ccc(N)cc21 [Propidium] |  |  |  |  |  |  |  |  |  |  |  | 82
10 | Cc1ccc(S(=O)(=O)NCCCCNc2c3c(nc4ccccc24)CCCCC3)cc1 [7j, 4-Methyl-N-(4-(7,8,9,10-tetrahydro-6H-cyclohepta[b]quinolin-11-ylamino)-butyl)-benzenesulfonamide] | 78.8 ± 6 | 14.7 | 1160 ± 30 | 10.3 ± 0.8 | 16.1 ± 1.4 |  |  |  |  |  |  | 
11 | Cc1ccc(S(=O)(=O)NCCCNc2c3c(nc4ccccc24)CCC3)cc1 [7b, N-(3-(2,3-Dihydro-1H-cyclopenta[b]quinolin-9-ylamino)-propyl)-4-methyl-benzenesulfonamide] | 327 ± 4 | 23.7 | 7760 ± 610 | 8.1 ± 0.6 | 12.3 ± 1.1 |  |  |  |  |  |  | 
12 | O=[N+]([O-])c1ccc(OP(=O)(O)Oc2ccc([N+](=O)[O-])cc2)cc1 [BNPP, bis-4-nitrophenyl phosphate, reference compound] |  |  |  | 1.80 ± 0.11 |  |  |  |  |  |  |  | 
13 | Cc1ccc(S(=O)(=O)NCCCCCNc2c3c(nc4ccccc24)CCC3)cc1 [7d, N-(5-(2,3-Dihydro-1H-cyclopenta[b]quinolin-9-ylamino)-pentyl)-4-methyl-benzenesulfonamide] | 459 ± 44 | 4.3 | 1970 ± 50 | 29.6 ± 1.2 | 15.1 ± 1.4 |  |  |  |  |  |  | 
